Like-named read-outs stand apart in the source and are kept apart here.
How the values were obtained:
[1] = test system: db/db mice; conditions: male db/db mice, 8 mm full thickness skin wound
Protocol: A full thickness skin wound was prepared on the backs of 9-week-old male db/db mice. The back of each mouse was shaved with an electric shaver under isoflurane anesthesia, and a full thickness skin wound of 8 mm in diameter was created on the back with a disposable biopsy punch. Compound A was administered dropwise (0.04 mL per wound site) at a concentration of 0.5 mM to the wound site once a day over 4 days from the wound creation date and protected with a dressing (Tegaderm Transparent Dressing). The negative control used was a test substance solubilizing solvent (10% Lutrol F127, 2% propylene glycol, 20 mM Tris buffer (pH 8.5)). 1, 4, 7, 9, 11, 15, and 18 days after the wound creation date, the wound site was photographed with a digital camera, and the wound area was calculated using image analysis software. When the wound area of the wound creation date was defined as 100%, the area at each day of photographing was calculated in terms of the percentage (%) of the area of the wound creation date. The test was conducted with 8 animals per group.

[2] = test system: SD rats; conditions: male SD rats
Protocol: Pressure ulcer was created by pressure load on the right third trochanters of 8-week-old male SD rats. The skin on the right third trochanter of each rat was shaved with an electric shaver. A pressure of 902.3 to 911.2 g/cm^2 was loaded on the right third trochanter for 24 hours under anesthesia with pentobarbital and allobarbital. 2 days after cancellation of the pressure load, necrotic tissues were surgically removed under isoflurane anesthesia. When the necrotic tissue removal date was defined as day 1, compound A was administered dropwise (0.02 to 0.06 mL per wound site) at a concentration of 0.5 mM to the wound site once a day and protected with gauze and a waterproof film. The negative control used was a test substance solubilizing solvent (10% Lutrol F127, 2% propylene glycol, 20 mM Tris buffer (pH 8.5)). The major axis and minor axis of the wound surface were measured every day with a vernier caliper, and the wound area (major axis×minor axis) was calculated. When the wound area of day 1 was defined as 100%, the calculated area at each day was calculated in terms of the percentage (%) of the area of the wound creation date. The test was conducted with 10 animals per group.

[3] = test system: db/db mice; test: Test Example 2: wound healing experiment, full thickness skin wound; type: in vivo; conditions: male db/db mice; for area under the curve (AUC) of the percent wound area / number of days required for 50% reduction in the percent wound area / 75% healing rate (proportion of individuals that achieved 75% or more reduction in the percent wound area at day 14): full thickness skin wound; for area under the curve (AUC) of the percent wound area: 0.15 mM dropwise; for number of days required for 50% reduction in the percent wound area / 75% healing rate (proportion of individuals that achieved 75% or more reduction in the percent wound area at day 14): compound B 0.15 mM dropwise; for number of days required for 50% reduction in the percent wound area: bFGF sprayed five times (approx. 30 μg), negative control 11.0 days (FIG. 4B); for 75% healing rate (proportion of individuals that achieved 75% or more reduction in the percent wound area at day 14): bFGF spray, negative control 16.7% (FIG. 4C)
Protocol: A positive control bFGF (trafermin (genetic recombination) formulation, Fiblast(trademark) spray) approved as a therapeutic agent for pressure ulcer and skin ulcer was sprayed five times (approximately 30 μg was administered per 6 cm in diameter) to the wound site from approximately 5 cm apart according to the dose regimen. […] The test was conducted with 6 animals per group.

| Compound | time-dependent change in the percent wound area ([1]; 0.5 mM dropwise 0.04 mL per wound site once a day over 4 days, days 1-18, vs negative control (FIG. 1)) | area under the curve (AUC) of the percent wound area ([1]; 0.5 mM dropwise once a day over 4 days, vs negative control (FIG. 2)) | time dependent change in the percent wound area ([2]; pressure ulcer on right third trochanter, 0.5 mM dropwise 0.02 to 0.06 mL per wound site once a day, vs negative control (FIG. 5)) | number of days required for healing ([2]; pressure ulcer, 0.5 mM dropwise once a day, negative control 25.3 days (FIG. 6B)) [days] | area under the curve (AUC) of the percent wound area ([2]; pressure ulcer, 0.5 mM dropwise once a day, vs negative control (FIG. 6A)) | time dependent change in the healing rate (complete healing rate) ([2]; pressure ulcer, 0.5 mM dropwise once a day, vs negative control (FIG. 6C)) | time dependent change in the percent wound area ([3]; 8 mm full thickness skin wound, 0.15 mM dropwise 0.04 mL per wound site at days 1, 2, 4, 7, 10, 14, 17, 22, vs negative control (FIG. 3)) | area under the curve (AUC) of the percent wound area ([3]; compared with negative control group (FIG. 4A)) | area under the curve (AUC) of the percent wound area ([3]; compared with positive control bFGF administration group (FIG. 4A)) | number of days required for 50% reduction in the percent wound area [3] [days] | 75% healing rate (proportion of individuals that achieved 75% or more reduction in the percent wound area at day 14) [3] [%] |
| --- | --- | --- | --- | --- | --- | --- | --- | --- | --- | --- | --- |
| Cc1nc(CC2CCN(c3ccc(-c4ccc(CO)cc4)cc3)CC2)nc(C(=O)NCC(=O)O)c1O [Compound A] | reduced the percent wound area at each point of evaluation, as compared with the negative control | low value as compared with AUC of the negative control group | reduced the percent wound area at each point of evaluation, as compared with the negative control | 21.5 | low value as compared with AUC of the negative control group | significant elevation in the healing rate as compared with the negative control group | – | – | – | – | – |
| Cc1nc(CC2CCN(c3ccc(-c4ccc(C[C@H](C)O)cc4)cc3)CC2)nc(C(=O)NCC(=O)O)c1O [Compound B, [({5-Hydroxy-2-[(1-{4′-[(2S)-2-hydroxypropyl]biphenyl-4-yl}piperidin-4-yl)methyl]-6-methylpyrimidin-4-yl}carbonyl)amino]acetic acid] | – | – | – | – | – | – | reduced the percent wound area at each point of evaluation, as compared with the negative control | low value as compared with AUC of the negative control group | low value as compared with the positive control bFGF administration group | 9.2 | 83.3 |
| bFGF: positive control bFGF (trafermin (genetic recombination) formulation, Fiblast spray) approved as a therapeutic agent for pressure ulcer and skin ulcer | – | – | – | – | – | – | – | – | – | 10.2 | 50.0 |
